In patent US7351690B2, “Knockout identification of target-specific sites in peptides” (priority 2000, dated 2008):
Square brackets hold non-standard residues; d marks the D form. Primed or numbered codes have the meaning given here. Ends that are not written are not given here. pGlu = O=C1CC[C@@H](C(=O)O)N1; Nle = CCCC[C@H](N)C(=O)O; dH′ = not defined here

system: bombesin receptor; test: competitive binding assay, 125I-Bombesin, rat brain membranes; conditions: not given
Method: Rat brain membranes were utilized as the source of bombesin receptor. The competitive binding assay was performed using a procedure as described by Moody T W, Perk C B, Rivier J, Brown, M R. (Proc Natl Acad Sci USA. 75:5372-5376, […]) and adapted to a 96 well format. An aliquot of membranes taken in assay buffer (50 mM Tris and HCl, pH 7.4 containing 1 mg/mL BSA and 2 μg/mL bacitracin) was incubated with 0.01 nM of ^125I-Bombesin with or without varying concentrations of the test compound for 60 min at 4° C. The incubation was terminated by rapid filtration of the assay mixture, followed by washing the filters with ice-cold buffer. The filters were dried and counted in a gamma counter for retained radioactivity. Non-specific binding was measured by including 1 μM Bombesin in the assay tube. The assay was performed in triplicate and results calculated to determine percentage inhibition of the ^125I-Bombesin binding to its receptors by a test compound. The parent polypeptide is shown in Table 6, with metallopeptides having Cys inserted as shown.

For “Gln-Trp-Ala-Val-Cys-NH2 (QWAVC-NH2; not fully specified (bridges); printed as Gln-Trp-Ala-Val-Cys-NH2; also: oxorhenium(V) N3S1 chelate (Re(V)=O)) [11-13]”, the “binding to bombesin receptor, in words” value was “high negative percent inhibition”.
With “D-Phe-Gln-Cys-Ala-Val-Gly-His-Leu-Leu-NH2 ([dF]QCAVGHLL-NH2; also: oxorhenium(V) N3S1 tetradentate complex via Cys) [9-7]” the “binding to bombesin receptor, in words” value was “least activity”.
In the case of “Pyr-Gln-Arg-Leu-Gly-Asn-Gln-Cys-Ala-Val-Gly-His-Leu-Nle-NH2 (QRLGNQCAVGHL; N-term pyroglutamate; Nle-NH2; rhenium complex; printed: Gln-Arg-Leu-Gly-Asn-Gln-Cys-Ala-Val-Gly-His-Leu-) [7-7]”, the “binding to bombesin receptor, in words” value is reported as “Complete inactivity”.
For “D-Phe-Gln-Trp-Ala-Cys-Val-Gly-His-Leu-Leu-NH2 ([dF]QWACVGHLL-NH2; also: oxorhenium(V) N3S1 chelate via Cys (Re(V)=O)) [8-6]”, the “binding to bombesin receptor, in words” value was “least activity”.

same assay, conditions: inhibition of 0.01 nM 125I-Bombesin binding; rat brain membranes; test concentration not given

First: Trp-Ala-Val-Cys-His-NH2 (WAVCH-NH2; not fully specified (bridges); printed as Trp-Ala-Val-Cys-His-NH2; also: oxorhenium(V) N3S1 chelate (Re=O) with Cys) [11-11]
Second: Pyr-Gln-Arg-Leu-Gly-Asn-Gln-Trp-Ala-Val-Gly-His-Leu-Cys-NH2 (QRLGNQWAVGHLC; N-term pyroglutamate; C-terminal amide; rhenium complex; printed: Gln-Arg-Leu-Gly-Asn-Gln-Trp-Ala-Val-Gly-His-Leu-Cys-) [7-1]
The “% Inhibition” value of the first is lower: −1% for the first, 73% for the second.

Compared with “D-Phe-Gln-Trp-Ala-Cys-Val-His-Leu-Leu-NH2 ([dF]QWACVHLL-NH2; also: rhenium complex (oxorhenium(V) N3S1 chelate via Cys)) [12-2]”, “Trp-Ala-Val-Cys-NH2 (WAVC-NH2; not fully specified (bridges); printed as Trp-Ala-Val-Cys-NH2; also: oxorhenium(V) N3S1 chelate (Re=O) with Cys) [11-14]” is higher in “% Inhibition” value: 3% for the first, 8% for the second.

Compared with “D-Phe-Gln-Trp-Ala-Val-Gly-His-Leu-Cys-NH2 ([dF]QWAVGHLC-NH2; also: rhenium complex (oxorhenium(V) N3S1 chelate via Cys)) [9-1]”, “D-Phe-Gln-Trp-Ala-Val-Cys-D-His-Leu-Leu-NH2 ([dF]QWAVC[dH′]LL-NH2; also: oxorhenium(V) N3S1 chelate via Cys (Re(V)=O)) [10-1]” is lower in “% Inhibition” value: 86% for the first, 10% for the second.

First: D-Phe-Gln-Trp-Val-Cys-Gly-His-Leu-Leu-NH2 ([dF]QWVCGHLL-NH2; also: oxorhenium(V) N3S1 chelate complex (Re=O)) [12-1]
Second: Ac-Ala-Gln-Cys-Leu-Gly-Asn-Gln-Trp-Ala-Val-Gly-His-Leu-Nle-NH2 (Ac-AQCLGNQWAVGHL[Nle]-NH2; also: oxorhenium(V) N3S1 tetradentate complex via Cys) [7-12]
The “% Inhibition” value of the first is lower: 2% for the first, 96% for the second.

Compared with “Ala-Val-Cys-His-NH2 (AVCH-NH2; not fully specified (bridges); printed as Ala-Val-Cys-His-NH2; also: oxorhenium(V) N3S1 chelate (Re(V)=O)) [11-12]”, “Pyr-Gln-Arg-Leu-Gly-Asn-Cys-Trp-Ala-Val-Gly-His-Leu-Nle-NH2 (QRLGNCWAVGHL; N-term pyroglutamate; Nle-NH2; rhenium complex; printed: Gln-Arg-Leu-Gly-Asn-Cys-Trp-Ala-Val-Gly-His-Leu-) [7-8]” is higher in “% Inhibition” value: 5% for the first, 84% for the second.

Compared with “D-Phe-Gln-Trp-Ala-Val-Cys-His-NH2 ([dF]QWAVCH-NH2; also: oxorhenium(V) N3S1 chelate via Cys (Re(V)=O)) [11-2]”, “Pyr-Gln-Arg-Leu-Gly-Cys-Gln-Trp-Ala-Val-Gly-His-Leu-Nle-NH2 (QRLGCQWAVGHL; N-term pyroglutamate; Nle-NH2; rhenium complex; printed: Gln-Arg-Leu-Gly-Cys-Gln-Trp-Ala-Val-Gly-His-Leu-) [7-9]” is higher in “% Inhibition” value: 25% for the first, 93% for the second.

First: Pyr-Gln-Arg-Leu-Gly-Asn-Gln-Trp-Ala-Val-Gly-His-Leu-Cys-Nle-NH2 (QRLGNQWAVGHLC; N-term pyroglutamate; Nle-NH2; rhenium complex; printed: Gln-Arg-Leu-Gly-Asn-Gln-Trp-Ala-Val-Gly-His-Leu-Cys-) [6-2]
Second: D-Phe-Gln-Trp-Val-Cys-Val-His-Leu-Leu-NH2 ([dF]QWVCVHLL-NH2; not fully specified (bridges); printed as D-Phe-Gln-Trp-Val-Cys-Val-His-Leu-Leu-NH2; also: oxorhenium(V) N3S1 chelate complex (Re=O)) [12-3]
The “% Inhibition” value of the first is higher: 91% for the first, 14% for the second.

Going from “D-Phe-Gln-Trp-Cys-Val-Gly-His-Leu-Leu-NH2 ([dF]QWCVGHLL-NH2; also: oxorhenium(V) N3S1 chelate complex (Re=O)) [9-6]” to “Gln-Trp-Ala-Val-Cys-NH2 (QWAVC-NH2; not fully specified (bridges); printed as Gln-Trp-Ala-Val-Cys-NH2; also: oxorhenium(V) N3S1 chelate (Re(V)=O)) [11-13]”, the “% Inhibition” value falls from 43% to −50%.

First: D-Phe-Gln-Cys-Ala-Val-Gly-His-Leu-Leu-NH2 ([dF]QCAVGHLL-NH2; also: oxorhenium(V) N3S1 tetradentate complex via Cys) [9-7]
Second: Ala-Val-Cys-His-Leu-Leu-NH2 (AVCHLL-NH2; not fully specified (bridges); printed as Ala-Val-Cys-His-Leu-Leu-NH2; also: oxorhenium(V) N3S1 chelate (Re(V)=O)) [11-6]
The “% Inhibition” value of the first is higher: 19% for the first, 6% for the second.

First: D-Phe-Gln-Trp-Ala-Val-Gly-His-Cys-Leu-NH2 ([dF]QWAVGHCL-NH2; also: rhenium complex (oxorhenium(V) N3S1 chelate via Cys)) [9-2]
Second: Pyr-Gln-Arg-Leu-Gly-Asn-Gln-Trp-Cys-Ala-Val-Gly-His-Leu-Nle-NH2 ([pGlu]QRLGNQWCAVGHL[Nle]-NH2; numbers in words are those of the source; also: rhenium complex (oxorhenium(V) N3S1 tetradentate chelate via Re=O core)) [6-7]
The “% Inhibition” value of the first is lower: 35% for the first, 62% for the second.

Compared with “D-Phe-Gln-Trp-D-Ala-Val-Cys-His-Leu-Leu-NH2 ([dF]QW[dA]VCHLL-NH2; numbers in words are those of the source; also: oxorhenium(V) N3S1 chelate complex (Re=O)) [10-4]”, “Trp-Ala-Val-Cys-His-Leu-Leu-NH2 (WAVCHLL-NH2; not fully specified (bridges); printed as Trp-Ala-Val-Cys-His-Leu-Leu-NH2; also: oxorhenium(V) N3S1 chelate (Re=O) with Cys) [11-5]” is higher in “% Inhibition” value: 2% for the first, 18% for the second.

Compared with “Pyr-Gln-Arg-Cys-Gly-Asn-Gln-Trp-Ala-Val-Gly-His-Leu-Nle-NH2 (QRCGNQWAVGHL; N-term pyroglutamate; Nle-NH2; rhenium complex; printed: Gln-Arg-Cys-Gly-Asn-Gln-Trp-Ala-Val-Gly-His-Leu-) [7-11]”, “Pyr-Gln-Arg-Leu-Gly-Asn-Gln-Cys-Trp-Ala-Val-Gly-His-Leu-Nle-NH2 ([pGlu]QRLGNQCWAVGHL[Nle]-NH2; numbers in words are those of the source; also: oxorhenium(V) N3S1 chelate (Re(V)=O)) [6-8]” is lower in “% Inhibition” value: 95% for the first, 75% for the second.

Going from “D-Phe-Gln-Trp-Ala-Val-Gly-His-Leu-Leu-Cys-NH2 ([dF]QWAVGHLLC-NH2; also: rhenium complex (oxorhenium(V) N3S1 chelate via Cys)) [8-1]” to “Pyr-Gln-Arg-Leu-Gly-Asn-Gln-Trp-Ala-Val-Cys-His-Leu-Nle-NH2 (QRLGNQWAVCHL; N-terminal pyroglutamate; C-terminal Nle-amide; printed: Gln-Arg-Leu-Gly-Asn-Gln-Trp-Ala-Val-Cys-His-Leu-) [7-4]”, the “% Inhibition” value rises from 39% to 81%.

First: Pyr-Gln-Arg-Leu-Gly-Asn-Gln-Trp-Ala-Val-Gly-Cys-Leu-Nle-NH2 (QRLGNQWAVGCL; N-terminal pyroglutamate; C-terminal Nle-amide; printed: Gln-Arg-Leu-Gly-Asn-Gln-Trp-Ala-Val-Gly-Cys-Leu-) [7-3]
Second: Pyr-Gln-Arg-Leu-Gly-Asn-Gln-Cys-Ala-Val-Gly-His-Leu-Nle-NH2 (QRLGNQCAVGHL; N-term pyroglutamate; Nle-NH2; rhenium complex; printed: Gln-Arg-Leu-Gly-Asn-Gln-Cys-Ala-Val-Gly-His-Leu-) [7-7]
The “% Inhibition” value of the first is higher: 82% for the first, −2% for the second.

For “D-Phe-Gln-Trp-Ala-Cys-Val-Gly-His-Leu-Leu-NH2 ([dF]QWACVGHLL-NH2; also: oxorhenium(V) N3S1 chelate via Cys (Re(V)=O)) [8-6]”, the “% Inhibition” value was 35%.
